Among the data in ChEMBL document CHEMBL1142045, “Carbonic anhydrase inhibitors. Interaction of isozymes I, II, IV, V, and IX with organic phosphates and phosphonates” (Bioorg Med Chem Lett, 2005) are Ki and KA values, retold here.

Assay [1] has as its target Carbonic anhydrase 5A, mitochondrial (Homo sapiens, UniProt P35218). The assay can be described thus: Binding affinity towards recombinant human mitochondrial carbonic anhydrase V.
In another assay the target is Carbonic anhydrase 2 (Homo sapiens, UniProt P00918). The assay can be described thus: Binding affinity towards human cytosolic carbonic anhydrase II.
The target of another assay is Carbonic anhydrase 9 (Homo sapiens, UniProt Q16790). Briefly: Binding affinity owards recombinant human transmembrane carbonic anhydrase IX.
A further assay deals with Carbonic anhydrase 4 (Homo sapiens, UniProt P22748). The assay can be described thus: Binding affinity towards human membrane associated carbonic anhydrase IV.
Chain of Carbonic anhydrase 4 (P22748 whole entry): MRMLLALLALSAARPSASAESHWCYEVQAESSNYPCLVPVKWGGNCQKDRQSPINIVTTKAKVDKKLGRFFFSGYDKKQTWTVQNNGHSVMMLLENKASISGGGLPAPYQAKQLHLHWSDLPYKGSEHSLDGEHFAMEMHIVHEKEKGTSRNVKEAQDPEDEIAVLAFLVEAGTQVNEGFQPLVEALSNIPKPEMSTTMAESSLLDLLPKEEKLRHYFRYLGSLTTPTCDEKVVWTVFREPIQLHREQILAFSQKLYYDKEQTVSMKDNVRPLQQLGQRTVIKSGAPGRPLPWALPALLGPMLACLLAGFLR
In assay [2] the target is Carbonic anhydrase 1 (Homo sapiens) (UniProt P00915). The assay can be described thus: Activation constant towards human cytosolic carbonic anhydrase I; Activator.
Chain of Carbonic anhydrase 1 (Homo sapiens) (P00915 2-261 limits assumed): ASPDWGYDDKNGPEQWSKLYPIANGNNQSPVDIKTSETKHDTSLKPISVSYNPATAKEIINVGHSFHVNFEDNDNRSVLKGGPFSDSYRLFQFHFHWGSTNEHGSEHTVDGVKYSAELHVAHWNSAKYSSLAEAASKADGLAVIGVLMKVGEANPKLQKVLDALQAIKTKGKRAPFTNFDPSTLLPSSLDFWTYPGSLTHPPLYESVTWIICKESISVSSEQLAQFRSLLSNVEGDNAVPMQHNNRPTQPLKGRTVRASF

Chain of Carbonic anhydrase 5A, mitochondrial (P35218 whole entry): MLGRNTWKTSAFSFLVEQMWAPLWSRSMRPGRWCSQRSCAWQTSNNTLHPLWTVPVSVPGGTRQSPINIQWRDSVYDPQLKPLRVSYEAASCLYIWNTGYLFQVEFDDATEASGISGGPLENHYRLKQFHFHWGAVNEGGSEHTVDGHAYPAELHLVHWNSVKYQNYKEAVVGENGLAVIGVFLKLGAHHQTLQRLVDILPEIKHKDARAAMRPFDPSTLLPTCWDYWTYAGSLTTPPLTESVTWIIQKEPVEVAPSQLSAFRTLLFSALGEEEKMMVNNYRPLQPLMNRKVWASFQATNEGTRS

What is called Ki is a dissociation constant, usually derived from enzyme kinetics or from competition with a known ligand. In the case of `CC(OP(=O)(O)O)C(N)C(=O)O` (configuration not stated), the Ki in assay [1] was 850 µM; on Carbonic anhydrase 2 it was 1080 µM; at Carbonic anhydrase 9, 1230 µM; on Carbonic anhydrase 4, 3180 µM. This molecule displayed a KA in assay [2] of 0.5 mM.

As to `N[C@@H](COP(=O)(O)O)C(=O)O` [DEXFOSFOSERINE], the Ki was 360 µM in assay [1], 420 µM on Carbonic anhydrase 2, 920 µM on Carbonic anhydrase 9 and 4260 µM at Carbonic anhydrase 4. The molecule also came in with a KA in assay [2] of 0.1 mM.

For `O=C(O)P(=O)(O)O` [FOSCARNET], the Ki in assay [1] was determined as 41700 µM. The molecule also showed a KA in assay [2] of 0.012 mM.

As to `O=P(O)(O)CP(=O)(O)O` [MEDRONIC ACID], the inhibition constant Ki in assay [1] came to 730 µM; on Carbonic anhydrase 2, 1250 µM; on Carbonic anhydrase 9, 860 µM; on Carbonic anhydrase 4 it was 5340 µM. Further, the KA in assay [2] turned out to be 0.2 mM.

Take `O=C(O)C[C@H](NC(=O)CP(=O)(O)O)C(=O)O` [PALA]: the Ki is 370 µM in assay [1], 7.8 µM on Carbonic anhydrase 2, 2250 µM on Carbonic anhydrase 9 and 0.079 µM on Carbonic anhydrase 4. In addition, the KA in assay [2] stood at 0.1 mM.

With `O=P(O)(O)c1ccccc1` [PHENYLPHOSPHONIC ACID], the Ki in assay [1] was 90 µM; at Carbonic anhydrase 2 it was 0.099 µM; on Carbonic anhydrase 9, 2210 µM; on Carbonic anhydrase 4, 5.4 µM. Also, the KA in assay [2] came out at 0.0001 mM.
